Where two headings read alike, the source gives them in different places.
What was measured:
[1] = PK protocol (intravenous and oral administration); format: in vivo, male Sprague Dawley rats; conditions: male, Sprague Dawley, plasma, rat; for Vd: read-out: Vdss
Method: Pharmacokinetic parameters were determined in male Sprague Dawley rats (Charles River, UK, 250-350 g; or Vital River Laboratory Animal Technology Co Ltd, Beijing, China, 7-9 weeks old). Animals were individually housed during the study and maintained under a 12 h light/dark cycle. Animals had free access to food and water except that some orally dosed animals were food deprived overnight prior to the study. For intravenous administration, compounds were formulated as a solution in water or DMSO:PBS [10:90] in 2 mL/kg dosing volume and administered via tail vein. For oral administration, compounds were formulated as a solution in water or DMSO:water [10:90] in 5 mL/kg dosing volume and administered orally.
Serial blood samples (about 120-300 μL) were taken from each animal at each of 8 time-points post dose (0.083, 0.25, 0.5, 1, 2, 4, 8 and 24 h) or at each of 12 time-points post dose (0.03, 0.1, 0.17, 0.25, 0.5, 1, 2, 4, 6, 8, 12 and 24 h) or pre-dose and at each of 9 time-points post dose (0.25, 0.5, 1, 2, 4, 6, 8, 12 and 24 h). Samples were held on ice for no longer than 30 minutes before centrifugation (10,000 rpm (8,385 g) for 3 minutes; or 5,696 rpm (3,000 g) for 15 minutes) for plasma generation. Plasma was frozen on dry ice prior to bioanalysis. PK parameters were generated from LC-MS/MS data using Dotmatics or Phoenix WinNonlin 6.3 software.

NLRP3 [2] = target: T1, NLRP3 (Homo sapiens, UniProt Q96P20); experiment: Human whole blood IL1β release assay; format: cell-based; design: Plate out 80 μl of whole blood containing 1 μg/ml of LPS; from tissue; host or cells: human whole blood from healthy donors, LPS-primed, nigericin-stimulated; conditions: LPS 1 μg/ml, nigericin 10 μM, IL-1β AlphaLisa, read-out: HWB IC50
T1 sequence (Q96P20 whole entry): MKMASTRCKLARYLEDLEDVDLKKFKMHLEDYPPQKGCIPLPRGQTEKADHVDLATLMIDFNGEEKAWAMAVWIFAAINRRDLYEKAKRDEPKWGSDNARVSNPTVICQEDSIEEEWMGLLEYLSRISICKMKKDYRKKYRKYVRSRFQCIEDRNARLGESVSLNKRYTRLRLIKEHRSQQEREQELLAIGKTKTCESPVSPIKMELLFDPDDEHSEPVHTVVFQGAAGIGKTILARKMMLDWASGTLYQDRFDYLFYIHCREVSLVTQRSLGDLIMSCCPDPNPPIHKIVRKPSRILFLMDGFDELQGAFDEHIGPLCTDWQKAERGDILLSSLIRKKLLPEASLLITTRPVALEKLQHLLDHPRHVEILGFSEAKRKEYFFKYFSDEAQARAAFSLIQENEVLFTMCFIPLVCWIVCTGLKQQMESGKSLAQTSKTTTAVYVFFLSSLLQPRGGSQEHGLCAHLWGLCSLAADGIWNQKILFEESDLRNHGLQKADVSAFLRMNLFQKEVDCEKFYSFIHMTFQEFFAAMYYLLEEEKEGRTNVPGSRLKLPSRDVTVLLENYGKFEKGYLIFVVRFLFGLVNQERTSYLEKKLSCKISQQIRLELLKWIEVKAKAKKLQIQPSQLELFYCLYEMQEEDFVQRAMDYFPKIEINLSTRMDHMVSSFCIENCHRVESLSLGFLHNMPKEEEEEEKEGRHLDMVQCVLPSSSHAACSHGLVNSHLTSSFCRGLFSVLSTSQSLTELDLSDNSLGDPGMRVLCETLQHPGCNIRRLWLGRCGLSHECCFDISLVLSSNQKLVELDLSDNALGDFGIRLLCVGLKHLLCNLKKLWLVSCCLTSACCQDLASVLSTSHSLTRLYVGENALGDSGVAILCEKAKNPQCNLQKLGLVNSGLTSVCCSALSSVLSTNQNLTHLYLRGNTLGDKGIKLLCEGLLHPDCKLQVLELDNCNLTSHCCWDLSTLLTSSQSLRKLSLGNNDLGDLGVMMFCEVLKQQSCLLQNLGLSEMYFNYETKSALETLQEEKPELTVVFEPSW
Method: For systemic delivery, the ability to inhibit NLRP3 when the compounds are present within the bloodstream is of great importance. For this reason, the NLRP3 inhibitory activity of a number of compounds in human whole blood was investigated in accordance with the following protocol.
Human whole blood in Li-heparin tubes was obtained from healthy donors from a volunteer donor panel. • 1. Plate out 80 μl of whole blood containing 1 μg/ml of LPS in 96-well, clear bottom cell culture plate (Corning #3585) • 2. Add […] compound (8 points half-log dilution with 10 μM top dose) or vehicle (DMSO 0.1% FAC) to the appropriate wells • 3. Incubate for 3 hrs at 37° C., 5% CO2 • 4. Add 10 μl Nigericin (Sigma #N7143) (10 μM FAC) to all wells • 5. Incubate for 1 hr at 37° C., 5 CO2 • 6. At the end of the incubation period, spin plates at 300×g for 5 mins to pellet cells and remove 20 μl of supernatant and add to 96-well v-bottom plates for […] analysis (note: these plates containing the supernatants can be stored at −80° C. to be analysed at a later date) • 7. IL-1β was measured according to the manufacturer protocol (Perkin Elmer-AlphaLisa IL-1 Kit AL220F-5000) • 8. IC50 data is fitted to anon-linear regression equation (log inhibitor vs response-variable slope 4-parameters)

NLRP3 [3] = target: T1, NLRP3; experiment: THP-1 cells pyroptosis assay; format: cell-based; design: Seed THP-1 cells (25,000 cells/well) containing 1.0 μg/ml LPS; host or cells: THP-1 cells, LPS-primed, nigericin-stimulated; conditions: LPS 1 μg/ml, nigericin 5 μM, resazurin read-out
How it was run: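 THP-1 cells (25,000/well) primed with 1 μg/ml LPS in serum-free RPMI, given compound (8-point half-log, 10 μM top, 0.1% DMSO) for 3 hrs, then nigericin 5 μM for 1 hr at 37° C. Viability of remaining cells read by resazurin (100 μM, 1–2 hrs) fluorescence; IC50 from 4-parameter fit.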

SMILES | AUC ([1]; intravenous, dose 1 mg/kg) [ng·h/mL] | clearance ([1]; intravenous, dose 1 mg/kg) [mL/min/kg] | half-life ([1]; intravenous, dose 1 mg/kg) [h] | Vd ([1]; intravenous, dose 1 mg/kg) [L/kg] | IC50 (NLRP3 [2]) [nM] | IC50 (NLRP3 [3]) [nM] | further results
O=C(Nc1c2c(cc3c1CCC3)CCC2)NS(=O)(=O)c1ccn(CC2CCCO2)n1 (centres unmarked) [Example 3, N-((1,2,3,5,6,7-Hexahydro-s-indacen-4-yl)carbamoyl)-1-((tetrahydrofuran-2-yl)methyl)-1H-pyrazole-3-sulfonamide] | 3680 | 4.5 | 6.7 | 1.57 | 800 to 1600 | 40 to 160 | 
O=C(Nc1c2c(cc3c1CCC3)CCC2)NS(=O)(=O)c1ccn(C2CCOC2)n1 (centres unmarked) [Example 1, N-((1,2,3,5,6,7-Hexahydro-s-indacen-4-yl)carbamoyl)-1-(tetrahydrofuran-3-yl)-1H-pyrazole-3-sulfonamide] | 8620 | 1.9 | 3.4 | 0.43 | 800 to 1600 | 160 to 640 | 
C[C@@H](O)Cn1ccc(S(=O)(=O)NC(=O)Nc2c3c(cc4c2CCC4)CCC3)n1 [Example 16, (R)—N-((1,2,3,5,6,7-Hexahydro-s-indacen-4-yl)carbamoyl)-1-(2-hydroxypropyl)-1H-pyrazole-3-sulfonamide] | 10200 | 1.8 | 3.8 | 0.41 | 400 to 800 | 40 to 160 | AUC ([1]; oral, dose 3 mg/kg): 19600 ng·h/mL; CL/F ([1]; oral, dose 3 mg/kg): 2.6 mL/min/kg; Cmax ([1]; oral, dose 3 mg/kg): 3960 ng/mL; Tmax ([1]; oral, dose 3 mg/kg): 0.83 h; bioavailability ([1]; oral, dose 3 mg/kg): 63.8%; half-life ([1]; oral, dose 3 mg/kg): 3.2 h
COC1(c2cc(S(=O)(=O)NC(=O)Nc3c4c(cc5c3CCC5)CCC4)nn2C)COC1 [Example 53, N-((1,2,3,5,6,7-Hexahydro-s-indacen-4-yl)carbamoyl)-5-(3-methoxyoxetan-3-yl)-1-methyl-1H-pyrazole-3-sulfonamide] | 1280 | 13.3 | 11.5 | 3.48 | < 400 | < 40 | 
COCCN(C)C(=O)c1cc(S(=O)(=O)NC(=O)Nc2c3c(cc4c2CCC4)CCC3)nn1C [Example 73, 3-(N-((1,2,3,5,6,7-Hexahydro-s-indacen-4-yl)carbamoyl)sulfamoyl)-N-(2-methoxyethyl)-N,1-dimethyl-1H-pyrazole-5-carboxamide] | 1160 | 14.4 | 2.9 | 2.24 | 400 to 800 | 40 to 160 | AUC ([1]; oral, dose 3 mg/kg): 2420 ng·h/mL; Cmax ([1]; oral, dose 3 mg/kg): 701 ng/mL
CCn1nc(S(=O)(=O)NC(=O)Nc2c3c(cc4c2CCC4)CCC3)cc1C1(O)COC1 [Example 46, 1-Ethyl-N-((1,2,3,5,6,7-hexahydro-s-indacen-4-yl)carbamoyl)-5-(3-hydroxyoxetan-3-yl)-1H-pyrazole-3-sulfonamide] |  |  |  |  | < 400 | < 40 | AUC ([1]; intravenous, dose 1.42 mg/kg): 2380 ng·h/mL; clearance ([1]; intravenous, dose 1.42 mg/kg): 10 mL/min/kg; half-life ([1]; intravenous, dose 1.42 mg/kg): 1.6 h; Vd ([1]; intravenous, dose 1.42 mg/kg): 0.56 L/kg
COCCN(CCOC)C(=O)c1cc(S(=O)(=O)NC(=O)Nc2c3c(cc4c2CCC4)CCC3)nn1C [Example 72, 3-(N-((1,2,3,5,6,7-Hexahydro-s-indacen-4-yl)carbamoyl)sulfamoyl)-N,N-bis(2-methoxyethyl)-1-methyl-1H-pyrazole-5-carboxamide] |  |  |  |  | 400 to 800 | 40 to 160 | AUC ([1]; intravenous, dose 2.88 mg/kg): 330 ng·h/mL; clearance ([1]; intravenous, dose 2.88 mg/kg): 149 mL/min/kg; half-life ([1]; intravenous, dose 2.88 mg/kg): 0.2 h; Vd ([1]; intravenous, dose 2.88 mg/kg): 1.84 L/kg
CC(C)(O)Cn1ccc(S(=O)(=O)NC(=O)Nc2c3c(cc4c2CCC4)CCC3)n1 [Example 10, N-((1,2,3,5,6,7-Hexahydro-s-indacen-4-yl)carbamoyl)-1-(2-hydroxy-2-methylpropyl)-1H-pyrazole-3-sulfonamide] | 4290 | 3.9 | 2.9 | 0.61 | 400 to 800 | 40 to 160 | AUC ([1]; oral, dose 3 mg/kg): 9660 ng·h/mL; CL/F ([1]; oral, dose 3 mg/kg): 5.2 mL/min/kg; Cmax ([1]; oral, dose 3 mg/kg): 1770 ng/mL; Tmax ([1]; oral, dose 3 mg/kg): 0.29 h; bioavailability ([1]; oral, dose 3 mg/kg): 75%; half-life ([1]; oral, dose 3 mg/kg): 3.5 h
CC(O)C(C)n1ccc(S(=O)(=O)NC(=O)Nc2c3c(cc4c2CCC4)CCC3)n1 (racemic) [Example 26, N-((1,2,3,5,6,7-Hexahydro-s-indacen-4-yl)carbamoyl)-1-(3-hydroxybutan-2-yl)-1H-pyrazole-3-sulfonamide] |  |  |  |  | < 400 | 40 to 160 | AUC ([1]; intravenous, dose 1.74 mg/kg): 8060 ng·h/mL; clearance ([1]; intravenous, dose 1.74 mg/kg): 4.2 mL/min/kg; half-life ([1]; intravenous, dose 1.74 mg/kg): 3.6 h; Vd ([1]; intravenous, dose 1.74 mg/kg): 0.6 L/kg

The next lines start with results.

AUC ([1]; intravenous, dose 1 mg/kg) [ng·h/mL] | clearance ([1]; intravenous, dose 1 mg/kg) [mL/min/kg] | half-life ([1]; intravenous, dose 1 mg/kg) [h] | Vd ([1]; intravenous, dose 1 mg/kg) [L/kg] | IC50 (NLRP3 [2]) [nM] | IC50 (NLRP3 [3]) [nM] | SMILES | further results
3880 | 4.6 | 1.1 | 0.35 | < 400 | < 40 | COC1(c2cc(S(=O)(=O)NC(=O)Nc3c4c(cc5c3CCC5)CCC4)nn2C2CC2)COC1 [Example 38, 1-Cyclopropyl-N-((1,2,3,5,6,7-hexahydro-s-indacen-4-yl)carbamoyl)-5-(3-methoxyoxetan-3-yl)-1H-pyrazole-3-sulfonamide] | 
1860 | 9 | 6.6 | 1.18 | < 400 | 40 to 160 | Cn1nc(S(=O)(=O)NC(=O)Nc2c3c(cc4c2CCC4)CCC3)cc1C1(O)COC1 [Example 51, N-((1,2,3,5,6,7-Hexahydro-s-indacen-4-yl)carbamoyl)-5-(3-hydroxyoxetan-3-yl)-1-methyl-1H-pyrazole-3-sulfonamide] | 
2960 | 5.6 | 0.7 | 0.24 | < 400 | < 40 | COC1(c2cc(S(=O)(=O)NC(=O)Nc3c4c(cc5c3CCC5)CCC4)nn2C(C)C)COC1 [Example 42, N-((1,2,3,5,6,7-Hexahydro-s-indacen-4-yl)carbamoyl)-1-isopropyl-5-(3-methoxyoxetan-3-yl)-1H-pyrazole-3-sulfonamide] | 
20100 | 0.8 | 2.6 | 0.12 | < 400 | 40 to 160 | CC(O)C(C)n1ccc(S(=O)(=O)NC(=O)Nc2c3c(cc4c2CCC4)CCC3)n1 (racemic) [Example 23, N-((1,2,3,5,6,7-Hexahydro-s-indacen-4-yl)carbamoyl)-1-(3-hydroxybutan-2-yl)-1H-pyrazole-3-sulfonamide] | 
7030 | 2.4 | 3.5 | 0.37 | < 400 | 40 to 160 | O=C(Nc1c2c(cc3c1CCC3)CCC2)NS(=O)(=O)c1ccn(C2(CO)CCC2)n1 [Example 24, N-((1,2,3,5,6,7-Hexahydro-s-indacen-4-yl)carbamoyl)-1-(1-(hydroxymethyl)cyclobutyl)-1H-pyrazole-3-sulfonamide] | 
948 | 17.6 | 2.9 | 1.74 | < 400 | < 40 | COC1(c2cc(S(=O)(=O)NC(=O)Nc3c4c(cc5c3CCC5)CCC4)nn2C)CCOC1 (centres unmarked) [Example 48, N-((1,2,3,5,6,7-Hexahydro-s-indacen-4-yl)carbamoyl)-5-(3-methoxytetrahydrofuran-3-yl)-1-methyl-1H-pyrazole-3-sulfonamide] | 

— US12012392B2, “Sulfonamide carboxamide compounds” (Inflazome Limited, priority 2017, dated 2024)
